Measurements: ChEMBL document CHEMBL1201862, “PubChem BioAssay data set” (2004)
The source made the active and inactive calls.

Columns and labels:
[1] = target: T1, Fatty acid synthase (Homo sapiens, UniProt P49327); test: FAS thioesterase domain inhibitors, dose response, biochemical, endpoint fluorescence intensity, uHTS hits (AID 624327); format: functional;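 further: fluorescence from hydrolysis of an O-methyl fluorescein acyl ester substrate by the enzyme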
[2] = target: T1, Fatty acid synthase; test: FAS thioesterase domain inhibitors, dose response, biochemical, kinetic fluorescence intensity (AID 624326); format: functional;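 further: rate of fluorescence rise from hydrolysis of a fluorogenic O-methyl fluorescein ester substrate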
[3] = target: Major prion protein (Homo sapiens, UniProt P04156); format: functional, cell-based
[4] = cells
[5] = intracellular Trypanosoma cruzi inhibitors in host cells – cell-based, plate reader, cherry-pick samples, set 3, dose response (AID 651818); format: functional;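 further: compounds incubated with infected cells for about four days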
[6] = target: Albumin (Bos taurus, UniProt P02769); test: Counterscreen for inhibitors of T-cell receptor (TCR)-CD3 interaction: Fluorescence-based biochemical high throughput dose response assay to identify inhibitors of T-cell receptor (TCR)-CD3 interaction using a TAMRA-labeled BSA probe.; format: functional
[7] = Luminescence Cell-Based Dose Confirmation HTS to Identify Activators of 5'UTR Stem-Loop Driven Alpha-Synuclein mRNA Translation in H4 Neuroglioblastoma Cells. [Related pubchem assays: 1829 (Project Summary), 1814 (Primary HTS)]; format: functional
[8] = Luminescence Cell-Based Dose Response HTS to Identify Activators of Luciferase Translation or Activity in H4 […] Cells. [Related pubchem assays: 1829 (Project Summary), 1814 (Primary HTS)]; format: functional
[9] = tested on: H4; test: Luminescence Cell-Based Dose Response HTS to Identify Activators of 5'UTR Stem-Loop Driven Prion Protein mRNA Translation in H4 Neuroglioblastoma Cells. [Related pubchem assays: 1829 (Project Summary), 1814 (Primary HTS)]; format: functional; conditions: Homo sapiens
[10] = target: Mu-type opioid receptor (Homo sapiens, UniProt P35372); format: functional, cell-based;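 further: U2OS cells with beta-arrestin recruitment to OPRM1 by beta-gal complementation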
[11] = target: 5-hydroxytryptamine receptor 2A (Mus musculus, UniProt P35363); format: functional, cell-based;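 further: CHO-K1 cells with tagged receptor and beta-arrestin; agonist potency measured as compound-induced activation of the receptor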
[12] = inhibitors of firefly luciferase expression or activity, dose response, H4 neuroglioma cells, luminescence (AID 1990); format: functional, cell-based
[13] = tested on: Streptococcus sp. 'group A'; test: growth inhibition of control SK(-) GAS strain, dose response, counter-screen for streptokinase expression inhibitor project, luminescence, kanamycin, BacTiterGlo, confirmation (AID 1900); format: functional, organism-based
[14] = Luminescence Cell-Based Dose Response HTS to Identify Inhibitors of 5'UTR Stem-Loop Driven Prion Protein mRNA Translation in H4 Neuroglioblastoma Cells. [Related pubchem assays: 1827 (Project Summary), 1813 (Primary HTS)]; format: functional
[15] = inhibitors of SNCA 5'UTR-driven reporter translation, confirmation, H4 neuroglioma cells, luminescence (AID 1988); format: functional, cell-based
[16] = tested on: Streptococcus; test: Group A Streptococcus viability loss, dose response, counter-screen for streptokinase expression inhibitor project, luminescence, BacTiterGlo (AID 1915); format: functional, organism-based;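 further: potency for reduction of bacterial viability or growth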
[17] = tested on: HEK293; test: inhibitors of LMP1-driven NF-kB reporter, dose response, cell-based, HEK293, luciferase, cherry-pick (AID 588343); format: functional; conditions: Homo sapiens
[18] = tested on: INS1; test: beta cell apoptosis inhibitors, cytokine rescue, dose response, luminescence, retest (AID 449756); format: functional, cell-based; conditions: Rattus norvegicus;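 further: cell death triggered by IL-1 beta plus TNF-alpha plus IFN-gamma mixture; protective hits raise ATP signal compared with cytokine alone wells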
[19] = inhibitors of HIV Env-driven cell fusion, dose response, cherry-pick (AID 652057); format: functional, cell-based
[20] = CEM21 lymphoblast cell cytotoxicity, dose response, cytotoxicity control for viral fusion inhibitor project, CellTiter-Glo luminescence, cherry-picked (AID 652042); format: functional, cell-based;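 further: potency for signal decrease meaning cytotoxicity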
[21] = ZM109 Env clade C HIV-1 fusion inhibitors, dose response, HeLa effector, CEM target cells, luciferase, cherry-pick (AID 652058); format: functional, cell-based
[22] = inhibitors of clade B AD8 Env fusion, dose response, cell-based, cherry-pick (AID 652062); format: functional;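 further: luciferase signal from cell-cell fusion driven by HIV-1 clade B AD8 Env; potency is for inhibitors of fusion seen as a drop in luminescence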

In the case of `Cc1ccc2[nH]c(SCC(=O)Nc3ccc(F)c([N+](=O)[O-])c3)nc2c1`, the IC50 [1] is reported as 6.64 µM (active) and the IC50 [2] is reported as 8 µM (active).

For `CN1C(=O)C(C)(C)c2cc(S(=O)(=O)N3CCCC(C(=O)Nc4ccc(Cl)cc4)C3)ccc21` (centres undefined), the IC50 [3] was 5.86 µM (active) and the IC50 [4] was > 138 µM (inactive).

With `COc1cc(OC)c(N2CC(C(=O)NCCC3=CCCCC3)CC2=O)cc1Cl` (centres undefined) the IC50 [1] was 9.83 µM (active) and the IC50 [2] was 11.8 µM (active).

In the case of `N#CC(CCc1ccccc1[N+](=O)[O-])(CCc1ccccc1[N+](=O)[O-])C(N)=O`, the IC50 [1] is reported as 11.4 µM (active) and the IC50 [2] is reported as 12 µM (active).

For `C[C@@H]1CN([C@@H](C)CO)C(=O)Cc2cc(NC(=O)Nc3ccc(F)cc3)ccc2O[C@@H]1CN(C)Cc1ccc(C(F)(F)F)cc1`, the AC50 [5] was 4.91 µM (active).

In the case of `C[C@H](CO)N1C[C@H](C)[C@@H](CN(C)Cc2ccncc2)Oc2c(NC(=O)c3ccc(-c4nccs4)cc3)cccc2C1=O`, the AC50 [5] is reported as 20 µM (inactive).

For `CC1(C(=O)Nc2ccc(Cl)c(Cl)c2)CCN1C(=O)CC1CCCC1` (centres undefined), the IC50 [1] was 8.5 µM (active) and the IC50 [2] was 4.39 µM (active).

For `COc1ccccc1C(=O)NNC(=O)c1ccc2ccccc2c1O`, the IC50 [6] was > 94.2 µM (inactive).

For `C[C@H]1CN([C@@H](C)CO)C(=O)Cc2cc(NC(=O)Nc3cccc4ccccc34)ccc2O[C@@H]1CN(C)Cc1ccc(-c2ccccc2)cc1`, the AC50 [5] was 7.08 µM (active).

For `Cc1noc(C)c1S(=O)(=O)Nc1ccc2c(c1)CC(=O)N([C@H](C)CO)C[C@@H](C)[C@@H](CN(C)Cc1ccc(C(F)(F)F)cc1)O2`, the AC50 [5] was 5.96 µM (active).

With `C[C@H](CO)N1C[C@H](C)[C@H](CN(C)Cc2ccc(C(F)(F)F)cc2)Oc2ccc(NC(=O)Nc3cccc4ccccc34)cc2CC1=O` the AC50 [5] was 1.05 µM (active).

In the case of `Brc1ccc2nc(-c3ccc(CN4CCC5(CC4)CNc4ccccc45)cc3)c(-c3ccccc3)nc2c1`, the IC50 [3] is reported as 7.84 µM (active) and the IC50 [4] is reported as > 138 µM (inactive).

In the case of `CN1CCc2c(sc(/N=C/c3cc(Cl)ccc3O)c2C#N)C1`, the EC50 [7] is reported as 7.13 µM (active), the EC50 [8] is reported as 5.07 µM (active) and the EC50 [9] is reported as 34.8 µM (active). The EC50 [10] was 92.4 µM (inactive) and the EC50 [11] was 76.1 µM (inactive).

For `CCCc1cc(=O)n2ncc(-c3ccc(Cl)cc3)c2[nH]1`, the EC50 [12] was 11.6 µM (active), the EC50 [13] was 1.71 µM (active) and the EC50 [14] was 12.3 µM (active). For the same molecule, the EC50 [15] was 10.9 µM (active), the EC50 [16] was 5.62 µM (active) and the AC50 [17] was 4.07 µM (active). For the same molecule, the AC50 [18] was 5.79 µM (active), the AC50 [19] was 2.65 µM (active) and the AC50 [20] was 4.59 µM (active). For the same molecule, the AC50 [21] was 7.51 µM (active) and the AC50 [22] was 11.2 µM (active).
